Source: ChEMBL document CHEMBL4304775, “Identification and characterization of a novel chemotype for human TLR8 inhibitors” (Eur J Med Chem, 2019)
Active and inactive are the calls of the source. No cut-off for these calls is given here.

Experiments:
THP-1 = test: Antiinflammatory activity in human THP1 cells assessed as reduction in CL075-induced IL-8 secretion at 10 to 25 uM preincubated for 1 hr followed by CL075-stimulation and measured after 24 hrs by ELISA relative to control; assay type: functional
[1] = target: Toll-like receptor 4 (Homo sapiens) (UniProt O00206); test: […] at TLR4 in human THP1 cells assessed as inhibition of LPS-induced IL-8 secretion preincubated for 1 hr followed by LPS-stimulation and measured after 24 hrs by ELISA; assay type: cell-based
Sequence of Toll-like receptor 4 (Homo sapiens) (O00206 whole entry): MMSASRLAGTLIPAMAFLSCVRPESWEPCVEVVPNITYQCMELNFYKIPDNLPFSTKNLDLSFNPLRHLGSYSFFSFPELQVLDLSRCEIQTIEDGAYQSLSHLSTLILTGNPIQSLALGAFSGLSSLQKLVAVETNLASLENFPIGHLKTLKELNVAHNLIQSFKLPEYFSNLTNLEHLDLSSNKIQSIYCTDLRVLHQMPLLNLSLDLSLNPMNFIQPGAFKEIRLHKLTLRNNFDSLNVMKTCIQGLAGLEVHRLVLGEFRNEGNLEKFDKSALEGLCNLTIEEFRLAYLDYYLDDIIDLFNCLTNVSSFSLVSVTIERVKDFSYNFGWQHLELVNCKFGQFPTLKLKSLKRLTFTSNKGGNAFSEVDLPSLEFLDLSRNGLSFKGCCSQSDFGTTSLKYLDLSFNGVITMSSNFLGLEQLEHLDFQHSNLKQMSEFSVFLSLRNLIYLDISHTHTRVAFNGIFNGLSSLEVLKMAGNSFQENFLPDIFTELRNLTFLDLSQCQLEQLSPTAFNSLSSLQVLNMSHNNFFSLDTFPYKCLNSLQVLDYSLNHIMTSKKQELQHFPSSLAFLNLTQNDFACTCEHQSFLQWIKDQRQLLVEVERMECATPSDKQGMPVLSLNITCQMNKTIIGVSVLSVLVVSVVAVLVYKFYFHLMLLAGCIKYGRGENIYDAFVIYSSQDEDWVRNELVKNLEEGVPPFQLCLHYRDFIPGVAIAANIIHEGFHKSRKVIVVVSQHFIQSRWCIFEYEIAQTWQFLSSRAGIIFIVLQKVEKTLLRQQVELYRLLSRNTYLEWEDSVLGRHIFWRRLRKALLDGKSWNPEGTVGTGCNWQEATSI

[2] = target: Toll-like receptor 5 (Homo sapiens) (UniProt O60602); test: […] at TLR5 in human THP1 cells assessed as inhibition of flagellin-induced IL-8 secretion preincubated for 1 hr followed by flagellin stimulation and measured after 24 hrs by ELISA; assay type: cell-based
Sequence of Toll-like receptor 5 (Homo sapiens) (O60602 whole entry): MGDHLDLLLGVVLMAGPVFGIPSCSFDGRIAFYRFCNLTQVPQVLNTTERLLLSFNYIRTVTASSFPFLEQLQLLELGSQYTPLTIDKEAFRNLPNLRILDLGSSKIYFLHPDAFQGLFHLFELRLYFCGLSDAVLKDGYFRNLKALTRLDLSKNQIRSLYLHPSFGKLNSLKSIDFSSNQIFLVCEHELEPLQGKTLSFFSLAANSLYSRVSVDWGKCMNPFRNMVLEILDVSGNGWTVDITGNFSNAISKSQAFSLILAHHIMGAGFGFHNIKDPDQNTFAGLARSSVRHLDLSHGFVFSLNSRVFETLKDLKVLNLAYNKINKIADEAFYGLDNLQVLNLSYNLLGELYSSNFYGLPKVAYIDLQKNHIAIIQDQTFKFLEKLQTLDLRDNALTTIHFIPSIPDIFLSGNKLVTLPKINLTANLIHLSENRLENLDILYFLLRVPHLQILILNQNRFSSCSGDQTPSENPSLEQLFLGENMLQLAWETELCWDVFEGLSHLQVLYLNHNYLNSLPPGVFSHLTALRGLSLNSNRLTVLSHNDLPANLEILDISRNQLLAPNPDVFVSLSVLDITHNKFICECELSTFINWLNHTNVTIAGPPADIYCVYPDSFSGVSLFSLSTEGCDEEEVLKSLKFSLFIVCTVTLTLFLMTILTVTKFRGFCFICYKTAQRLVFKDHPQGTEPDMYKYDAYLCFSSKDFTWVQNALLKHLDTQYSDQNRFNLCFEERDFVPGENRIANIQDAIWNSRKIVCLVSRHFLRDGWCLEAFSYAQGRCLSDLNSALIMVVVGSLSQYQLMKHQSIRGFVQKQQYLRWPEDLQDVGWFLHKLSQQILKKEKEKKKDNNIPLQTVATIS

[3] = target: Toll-like receptor 3 (Homo sapiens) (UniProt O15455); test: […] at TLR3 in human THP1 cells assessed as inhibition of poly(A:U)-induced IL-8 secretion preincubated for 1 hr followed by poly(A:U)-stimulation and measured after 24 hrs by ELISA; assay type: cell-based
Sequence of Toll-like receptor 3 (Homo sapiens) (O15455 whole entry): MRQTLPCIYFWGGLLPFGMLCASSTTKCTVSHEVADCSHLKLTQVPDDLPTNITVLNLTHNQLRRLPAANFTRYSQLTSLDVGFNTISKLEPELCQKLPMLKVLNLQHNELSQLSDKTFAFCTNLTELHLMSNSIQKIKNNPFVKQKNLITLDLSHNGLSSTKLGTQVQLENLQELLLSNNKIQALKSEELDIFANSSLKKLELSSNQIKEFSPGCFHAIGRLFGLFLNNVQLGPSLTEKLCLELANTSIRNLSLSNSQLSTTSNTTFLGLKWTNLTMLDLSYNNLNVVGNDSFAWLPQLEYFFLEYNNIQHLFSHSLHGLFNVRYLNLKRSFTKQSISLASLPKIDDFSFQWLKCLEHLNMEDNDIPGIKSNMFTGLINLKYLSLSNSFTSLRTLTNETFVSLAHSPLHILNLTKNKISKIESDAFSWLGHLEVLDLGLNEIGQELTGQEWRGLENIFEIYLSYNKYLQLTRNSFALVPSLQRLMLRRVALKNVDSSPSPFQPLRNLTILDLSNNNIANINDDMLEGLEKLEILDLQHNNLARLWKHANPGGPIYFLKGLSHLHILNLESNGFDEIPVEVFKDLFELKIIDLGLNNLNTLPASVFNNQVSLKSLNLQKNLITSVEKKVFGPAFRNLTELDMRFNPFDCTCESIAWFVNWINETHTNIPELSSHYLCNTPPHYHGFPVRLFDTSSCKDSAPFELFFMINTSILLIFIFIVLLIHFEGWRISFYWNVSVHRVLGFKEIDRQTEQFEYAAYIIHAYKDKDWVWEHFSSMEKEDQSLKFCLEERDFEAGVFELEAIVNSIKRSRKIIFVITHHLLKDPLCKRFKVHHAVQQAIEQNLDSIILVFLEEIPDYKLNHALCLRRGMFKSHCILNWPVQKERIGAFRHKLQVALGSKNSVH

[4] = target: T1, Toll-like receptor 9 (Homo sapiens) (UniProt Q9NR96); test: […] at TLR9 in human THP1 cells assessed as inhibition of ODN2006-induced IL-8 secretion preincubated for 1 hr followed by ODN2006-stimulation and measured after 24 hrs by ELISA; assay type: cell-based
T1 sequence (whole entry): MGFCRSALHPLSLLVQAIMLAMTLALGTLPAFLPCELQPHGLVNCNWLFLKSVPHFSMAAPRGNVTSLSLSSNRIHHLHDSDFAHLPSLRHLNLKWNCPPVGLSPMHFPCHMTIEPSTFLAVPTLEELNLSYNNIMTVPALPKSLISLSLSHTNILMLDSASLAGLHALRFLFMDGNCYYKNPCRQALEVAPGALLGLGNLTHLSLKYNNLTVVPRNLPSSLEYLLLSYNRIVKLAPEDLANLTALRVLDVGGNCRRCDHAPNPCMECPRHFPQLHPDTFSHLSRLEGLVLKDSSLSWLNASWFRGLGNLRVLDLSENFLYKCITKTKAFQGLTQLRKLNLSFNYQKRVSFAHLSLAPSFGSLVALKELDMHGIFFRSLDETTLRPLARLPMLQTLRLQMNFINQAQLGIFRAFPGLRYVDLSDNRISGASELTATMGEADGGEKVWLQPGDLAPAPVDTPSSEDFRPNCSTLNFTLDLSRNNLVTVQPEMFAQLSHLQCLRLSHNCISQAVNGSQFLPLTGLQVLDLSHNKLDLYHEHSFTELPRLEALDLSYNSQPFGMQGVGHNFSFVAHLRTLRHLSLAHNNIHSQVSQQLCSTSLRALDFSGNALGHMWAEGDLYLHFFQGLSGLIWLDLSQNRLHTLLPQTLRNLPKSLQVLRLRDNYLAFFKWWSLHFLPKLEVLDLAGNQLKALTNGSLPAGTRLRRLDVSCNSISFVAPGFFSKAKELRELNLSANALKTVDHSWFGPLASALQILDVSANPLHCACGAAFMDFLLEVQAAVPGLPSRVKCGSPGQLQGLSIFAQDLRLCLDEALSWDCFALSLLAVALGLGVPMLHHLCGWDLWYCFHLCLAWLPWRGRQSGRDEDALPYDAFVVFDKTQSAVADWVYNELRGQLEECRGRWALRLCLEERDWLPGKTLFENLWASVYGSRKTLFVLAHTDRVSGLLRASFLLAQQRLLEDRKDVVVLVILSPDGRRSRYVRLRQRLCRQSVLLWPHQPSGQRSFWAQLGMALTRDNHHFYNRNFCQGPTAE

[5] = target: T2, Toll-like receptor 8 (Homo sapiens) (UniProt Q9NR97); test: Activation of human TLR8 expressed in HEK-Blue cells assessed as increase in NF-kappaB activation at 5 to 25 uM incubated for 24 hrs by quanti-blue SEAP assay; assay type: cell-based
T2 sequence (whole entry): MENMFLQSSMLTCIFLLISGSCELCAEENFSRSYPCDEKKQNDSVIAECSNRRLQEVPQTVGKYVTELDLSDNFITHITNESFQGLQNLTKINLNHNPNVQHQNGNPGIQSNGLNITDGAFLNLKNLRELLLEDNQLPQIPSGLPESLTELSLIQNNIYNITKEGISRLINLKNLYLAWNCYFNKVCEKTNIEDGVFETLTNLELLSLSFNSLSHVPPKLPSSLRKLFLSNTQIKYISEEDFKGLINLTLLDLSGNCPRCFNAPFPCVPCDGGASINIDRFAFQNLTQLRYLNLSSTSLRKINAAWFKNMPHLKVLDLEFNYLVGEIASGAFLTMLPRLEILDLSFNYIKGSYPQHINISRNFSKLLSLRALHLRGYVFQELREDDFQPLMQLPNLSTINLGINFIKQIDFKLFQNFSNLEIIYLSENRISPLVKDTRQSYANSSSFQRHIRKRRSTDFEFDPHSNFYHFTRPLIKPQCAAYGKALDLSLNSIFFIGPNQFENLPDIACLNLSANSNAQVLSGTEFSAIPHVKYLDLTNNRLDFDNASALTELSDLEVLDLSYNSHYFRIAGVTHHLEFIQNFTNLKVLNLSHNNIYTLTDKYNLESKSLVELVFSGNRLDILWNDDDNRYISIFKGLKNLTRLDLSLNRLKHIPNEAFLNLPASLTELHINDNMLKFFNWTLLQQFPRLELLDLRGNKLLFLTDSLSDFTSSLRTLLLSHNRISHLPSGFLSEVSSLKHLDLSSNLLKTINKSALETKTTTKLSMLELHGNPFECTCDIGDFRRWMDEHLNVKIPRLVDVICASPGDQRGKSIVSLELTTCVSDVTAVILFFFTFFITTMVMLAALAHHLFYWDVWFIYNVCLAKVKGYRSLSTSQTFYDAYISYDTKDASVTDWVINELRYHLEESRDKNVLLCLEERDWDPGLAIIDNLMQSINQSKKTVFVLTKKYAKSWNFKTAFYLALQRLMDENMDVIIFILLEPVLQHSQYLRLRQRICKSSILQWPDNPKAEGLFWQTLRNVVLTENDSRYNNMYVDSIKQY

[6] = target: Toll-like receptor 3 (Homo sapiens) (UniProt O15455); test: […] at TLR3 in human THP1 cells assessed as inhibition of poly(I:C)-induced IL-8 secretion preincubated for 1 hr followed by poly(I:C)-stimulation and measured after 24 hrs by ELISA; assay type: cell-based

Row | SMILES | inhibition (INH) (THP-1) | inhibition [1] | inhibition [2] | inhibition [3] | inhibition [4] | Activity [5] | inhibition [6]
1 | FC(F)(F)c1cc(-c2ccccc2)nc(NCc2cccs2)n1 | >70% | inactive | inactive | inactive | inactive | inactive | inactive
2 | FC(F)(F)c1cc(-c2ccco2)nc(NCc2cccs2)n1 | >70% | inactive | inactive | inactive | inactive | inactive | inactive
3 | CCCCNc1nc(-c2cccs2)cc(C(F)(F)F)n1 | 50% | inactive | inactive | inactive | inactive | inactive | inactive
